Test results taken from patent US12378186B2, “Inhibitors of meprin α and β” (VIVORYON THERAPEUTICS N.V., priority 2016, dated 2025).
Read-outs that look alike come from different tables or passages of the source.

Legend:
hMeprin α = biological target: T1, hMeprin α (Homo sapiens, UniProt Q16819); assay: biochemical; type: biochemical; settings: 30° C., 40 mM HEPES pH 7.4; for IC50: average IC50, 10 μM substrate, read-out: Meprin Alpha IC50; for Ki: average Ki, 4 substrate concentrations (5-40 μM), read-out: Meprin Alpha Ki
T1 sequence (Q16819 66-746): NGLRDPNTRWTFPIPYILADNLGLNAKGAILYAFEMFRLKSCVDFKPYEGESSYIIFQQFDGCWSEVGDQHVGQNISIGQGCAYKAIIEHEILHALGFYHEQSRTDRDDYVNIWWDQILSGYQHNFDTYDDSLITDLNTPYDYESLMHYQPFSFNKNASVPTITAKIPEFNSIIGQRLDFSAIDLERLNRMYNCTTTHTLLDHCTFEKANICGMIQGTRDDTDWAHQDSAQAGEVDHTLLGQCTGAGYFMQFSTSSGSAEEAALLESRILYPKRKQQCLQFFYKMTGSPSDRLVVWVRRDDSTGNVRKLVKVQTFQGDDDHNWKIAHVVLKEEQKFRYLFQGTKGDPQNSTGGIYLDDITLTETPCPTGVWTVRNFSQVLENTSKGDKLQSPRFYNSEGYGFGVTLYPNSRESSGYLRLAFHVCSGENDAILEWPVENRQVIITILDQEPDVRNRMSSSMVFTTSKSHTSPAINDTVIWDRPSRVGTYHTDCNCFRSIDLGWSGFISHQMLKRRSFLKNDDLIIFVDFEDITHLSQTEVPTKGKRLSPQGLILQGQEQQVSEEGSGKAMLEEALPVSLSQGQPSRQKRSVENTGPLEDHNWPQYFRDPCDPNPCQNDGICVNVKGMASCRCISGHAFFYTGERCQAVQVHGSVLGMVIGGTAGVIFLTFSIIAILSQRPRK
Description: (§1) A typical assay of 250 μl total volume measured in black 96 well plates consisted of 100 μl buffer, 50 μl enzyme at a final concentration of 5e-8 M to 5e-9 M, 50 μl substrate (0.15 to 80 μM, in buffer, 0.5% DMSO) and 50 μl inhibitor solution (in buffer, 1% DMSO). In case of 125 μl assay volume (black 96 half area well plates) all volumes were cut in half. Enzymatic activity of ADAMs was measured in 384 well plates with 60 μl total assay volume consisting of 20 μl inhibitor, 20 μl buffer, 10 μl enzyme and 10 μl substrate.
(§2) Ki values were assessed combining 4 substrate concentrations (5-40 μM) with at least 5 inhibitor concentrations. […] Initial velocities were determined and converted into concentration units applying a standard curve obtained after complete conversion of different substrate concentrations under assay conditions. All measurements were performed using a fluorescence plate reader (FLUOstar OPTIMA, BMG Labtech) at 30° C. The kinetic parameters were determined at least in duplicates on separate days. The excitation/emission wavelength was 340/420 nm. The kinetic data was evaluated using GraFit software (version 7.0.3, Erithacus Software).
(§3) The following compounds according to the present invention were synthesized using the above general procedures. IC50 refers to the average IC50 values measured as described above, SD (IC50) refers to the standard deviation of the average IC50 values, Ki refers to the average K; values measured as described above, and SD (Ki) to the standard deviation of the average Ki values.

hMeprin β = biological target: T2, hMeprin β (Homo sapiens, UniProt Q16820); assay: Enzymatic assay, cleavage of internally quenched peptide substrate, hMeprin β; type: biochemical
T2 sequence (Q16820 62-701): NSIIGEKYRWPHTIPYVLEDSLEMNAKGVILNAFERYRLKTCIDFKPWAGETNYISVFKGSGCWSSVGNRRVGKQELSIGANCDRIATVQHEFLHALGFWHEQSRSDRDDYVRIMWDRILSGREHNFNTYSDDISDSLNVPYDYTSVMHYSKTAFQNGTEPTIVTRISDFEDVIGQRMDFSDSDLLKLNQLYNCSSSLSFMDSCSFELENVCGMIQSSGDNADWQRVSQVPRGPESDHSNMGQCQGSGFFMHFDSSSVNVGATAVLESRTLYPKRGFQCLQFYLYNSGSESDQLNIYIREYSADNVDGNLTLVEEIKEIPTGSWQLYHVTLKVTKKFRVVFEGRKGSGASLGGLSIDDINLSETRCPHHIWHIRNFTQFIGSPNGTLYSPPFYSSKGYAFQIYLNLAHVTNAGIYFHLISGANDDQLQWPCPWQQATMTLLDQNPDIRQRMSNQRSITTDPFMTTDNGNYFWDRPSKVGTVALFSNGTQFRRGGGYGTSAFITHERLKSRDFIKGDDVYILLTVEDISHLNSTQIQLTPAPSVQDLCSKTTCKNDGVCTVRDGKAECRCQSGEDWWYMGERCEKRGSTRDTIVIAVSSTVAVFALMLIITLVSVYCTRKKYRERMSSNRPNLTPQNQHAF
Description: as §1, §2, §3

[1] = average IC50, 10 μM substrate, 30° C., 40 mM Tris pH 8.0, read-out: Meprin Beta IC50

IC50 (hMeprin β) [µM]	Structure (SMILES)	IC50 (hMeprin α) [µM]	Ki (hMeprin α) [µM]	Ki (hMeprin β) [µM]	IC50 (hMeprin β; [1]) [µM]
	O=C(CN(Cc1cccc(C(=O)O)c1)Cc1ccc2c(c1)OCO2)NO [Example 22, 3-[[1,3-Benzodioxol-5-ylmethyl-[2-(hydroxy-amino)-2-oxo-ethyl]amino]-methyl]benzoic acid]	1.43	0.606	0.105	
20	COc1ccc(CN(CC(=O)NO)Cc2ccc3c(c2)OCO3)cc1 [Example 23]	1.68			
60.9	COc1ccc(CN(CC(=O)NO)Cc2ccc(C)cc2)cc1 [Example 24, 2-[(4-Methoxyphenyl)methyl-(p-tolylmethyl)-amino]ethanehydroxamic acid]	2.33			
80.4	COc1ccc(CN(CC(=O)NO)Cc2ccc(F)cc2)cc1 [Example 25, 2-[(4-fluorophenyl)methyl-[(4-methoxyphenyl)-methyl]amino]ethanehydroxamic acid]	4.13			
53.4	COc1ccc(CN(CC(=O)NO)Cc2ccc(Cl)cc2)cc1 [Example 26, 2-[(4-Chlorophenyl)methyl-[(4-methoxyphenyl)-methyl]amino]ethanehydroxamic acid]	1.99			
34.5	COc1ccc(CN(CC(=O)NO)Cc2cccc(OC)c2)cc1 [Example 27, 2-[(3-Methoxyphenyl)methyl-[(4-methoxyphenyl)-methyl]amino]ethanehydroxamic acid]	3.2			
	C[C@H](NCc1cccc(C(=O)O)c1)C(=O)NO [Example 28, 3-[[[(1S)-2-(Hydroxyamino)-1-methyl-2-oxo-ethyl]amino]methyl]benzoic acid]	16.7		3.1	4.2
	CC(C)[C@H](NCc1cccc(C(=O)O)c1)C(=O)NO [Example 29, 3-[[[(1S)-1-(Hydroxycarbamoyl)-2-methyl-propyl]amino]methyl]benzoic acid]	44.4			15.8
	O=C(O)c1cccc(CN[C@@H](Cc2ccccc2)C(=O)NO)c1 [Example 30, 3-[[[(1S)-1-Benzyl-2-(hydroxyamino)-2-oxo-ethyl]amino]methyl]benzoic acid]	10.2			15.5
	COc1ccc(CN(CCC(=O)NO)Cc2cccc(C(=O)O)c2)cc1 [Example 31, 3-[[[3-(Hydroxyamino)-3-oxo-propyl]-[(4-methoxyphenyl)methyl]amino]-methyl]benzoic acid]	0.233	0.087	0.165	0.643
39.3	CC(C)(NCc1cccc(C(=O)O)c1)C(=O)NO [Example 32, 3-[[[2-(Hydroxyamino)-1,1-dimethyl-2-oxo-ethyl]amino]methyl]benzoic acid]	265			
	C[C@@H](NCc1cccc(C(=O)O)c1)C(=O)NO [Example 33, 3-{[[(1R)-2-(Hydroxyamino)-1-methyl-2-oxo-ethyl]amino]methyl]benzoic acid]	45.1		2.58	4.25
	CC(C)[C@@H](NCc1cccc(C(=O)O)c1)C(=O)NO [Example 34, 3-[[[(1R)-1-(Hydroxycarbamoyl)-2-methyl-propyl]amino]methyl]benzoic acid]	30			11.8
	O=C(O)c1cccc(CN[C@H](Cc2ccccc2)C(=O)NO)c1 [Example 35, 3-[[[(1R)-1-Benzyl-2-(hydroxyamino)-2-oxo-ethyl]amino]methyl]benzoic acid]	2.65		1.36	2.91
	O=C(O)c1cccc(CN[C@@H](C(=O)NO)c2ccccc2)c1 [Example 36, 3-[[[(1R)-2-(Hydroxyamino)-2-oxo-1-phenyl-ethyl]amino]methyl]benzoic acid]	21.7			11.7
	O=C(O)c1cccc(CN[C@H](C(=O)NO)c2ccccc2)c1 [Example 37, 3-[[[(1S)-2-(Hydroxyamino)-2-oxo-1-phenyl-ethyl]amino]methyl]benzoic acid]	26.3			12.2
	COc1ccc(CN(CCCC(=O)NO)Cc2cccc(C(=O)O)c2)cc1 [Example 38, 3-[[[4-(hydroxyamino)-4-oxo-butyl]-[(4-methoxyphenyl)methyl]amino]-methyl]benzoic acid]	2.61	0.948	0.225	0.742
	O=C(O)CC[C@H](NCc1cccc(C(=O)O)c1)C(=O)NO [Example 39, 3-[[[(1S)-3-carboxy-1-(hydroxylcarbamoyl)-propyl]amino]methyl]benzoic acid]	8.66	2.53	0.325	0.654
	N#Cc1cccc(CN(CC(=O)NO)Cc2cccc(C#N)c2)c1 [Example 40, 2-[bis[(3-cyanophenyl)methyl]amino]-ethanehydroxamic acid]	1.47	0.521		12
	NC(=O)c1cccc(CN(CC(=O)NO)Cc2cccc(C(N)=O)c2)c1 [Example 41, 3-[[(3-carbamoylphenyl)methyl-[2-(hydroxyamino)-2-oxo-ethyl]amino]methyl]benzamide]	2.9	0.852		13.1
25	COC(=O)c1cccc(CN(CC(=O)NO)Cc2cccc(C(N)=O)c2)c1 [Example 42]	3.54	1.19		
0.516	COC(=O)c1cccc(CN(CC(=O)NO)Cc2cccc(C(=O)O)c2)c1 [Example 43]	6.28	1.74	0.152	
	O=C(O)CC[C@@H](NCc1cccc(C(=O)O)c1)C(=O)NO [Example 44, 3-[[[(1R)-3-carboxy-1-(hydroxycarbamoyl)-propyl]amino]methyl]benzoic acid]	32.1		0.277	0.768
	O=C(O)C[C@H](NCc1cccc(C(=O)O)c1)C(=O)NO [Example 45, 3-[[[(1S)-1-(carboxymethyl)-2-(hydroxyamino)-2-oxo-ethyl]amino]methyl]benzoic acid]	60.4		0.644	1.32
	O=C(O)C[C@@H](NCc1cccc(C(=O)O)c1)C(=O)NO [Example 46, 3-[[[(1R)-1-(carboxymethyl)-2-(hydroxyamino)-2-oxo-ethyl]amino]methyl]benzoic acid]	15.1		0.254	0.548
	O=C(CN(Cc1ccc(F)c(O)c1F)Cc1ccc(F)c(O)c1F)NO [Example 47, 2-[bis[(2,4-difluoro-3-hydroxy-phenyl)-methyl]amino]ethanehydroxamic acid]	0.626	0.189	0.012	0.023
	O=C(CN(Cc1cc(F)c(O)c(F)c1)Cc1cc(F)c(O)c(F)c1)NO [Example 48, 2-[bis[(3,5-difluoro-4-hydroxy-phenyl)methyl]-amino]ethanehydroxamic acid]	1.3	0.263	0.118	0.272
